According to ChEMBL document CHEMBL1130373, “Dual CCK-A and -B receptor antagonists (I) C9-methyl-1,4-benzodiazepines” (Bioorg Med Chem Lett, 1997):

What was measured:
[1] = Selectivity for cholecystokinin A and B receptors
[2] = target: T1, Cholecystokinin receptor type A (Rattus norvegicus, UniProt P30551); assay: Inhibition of [125I]Cholecystokinin-8 (125I-CCK-8) binding to Cholecystokinin type A receptor of rat pancreatic membranes; type: cell membranes, Membrane
T1 sequence (P30551 whole entry): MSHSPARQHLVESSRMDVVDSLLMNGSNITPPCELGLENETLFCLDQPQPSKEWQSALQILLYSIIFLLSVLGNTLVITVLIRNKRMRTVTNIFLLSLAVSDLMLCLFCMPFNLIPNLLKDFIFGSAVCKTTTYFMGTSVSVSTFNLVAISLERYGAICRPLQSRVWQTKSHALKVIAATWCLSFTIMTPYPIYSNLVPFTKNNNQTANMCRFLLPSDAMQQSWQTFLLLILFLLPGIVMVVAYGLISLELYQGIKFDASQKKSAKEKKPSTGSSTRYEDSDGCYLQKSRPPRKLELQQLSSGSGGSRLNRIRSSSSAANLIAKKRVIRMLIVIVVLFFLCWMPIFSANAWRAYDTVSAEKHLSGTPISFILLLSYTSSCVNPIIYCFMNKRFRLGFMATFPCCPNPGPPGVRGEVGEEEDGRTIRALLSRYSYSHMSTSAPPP

[3] = target: T1, Cholecystokinin receptor type A; assay: Inhibition of [125I]Cholecystokinin-8 binding to Cholecystokinin type A receptor of rat pancreatic membranes; type: cell membranes, Membrane

Row | SMILES | Selectivity [1] | IC50 [2] | IC50 [3]
1 | Cc1cccc2c1N(CC(=O)N1CC3CCC(CC3)C1)C(=O)C(NC(=O)Nc1cccc(-c3nn[nH]n3)c1)N=C2c1ccccc1F (single isomer, unassigned; (+)) [listing 1 of 2 here] | 24 | – | –
2 | Cc1cccc2c1N(CC(=O)N1CC3CCC(CC3)C1)C(=O)C(NC(=O)Nc1cccc(Br)c1)N=C2c1ccccc1F (configuration not stated) | 2.8 | 5.1 nM | –
3 | Cc1cccc2c1N(CC(=O)N1CC3CCC(CC3)C1)C(=O)C(NC(=O)Nc1cccc(C(=O)O)c1)N=C2c1ccccc1F (configuration not stated) | 170 | 160 nM | –
4 | Cc1cccc2c1N(CC(=O)N1CC3CCC(CC3)C1)C(=O)C(NC(=O)Nc1cccc(-c3nn[nH]n3)c1)N=C2c1ccccc1F (stereo in doubt; (-)-11) [listing 1 of 2 here] | 110 | – | –
5 | CSc1cccc(NC(=O)NC2N=C(c3ccccc3F)c3cccc(C)c3N(CC(=O)N3CC4CCC(CC4)C3)C2=O)c1 (configuration not stated) | 57 | 21 nM | –
6 | COc1cccc(NC(=O)NC2N=C(c3ccccc3F)c3cccc(C)c3N(CC(=O)N3CC4CCC(CC4)C3)C2=O)c1 (configuration not stated) | 7.3 | 7.3 nM | –
7 | Cc1cccc(NC(=O)NC2N=C(c3ccccc3F)c3cccc(C)c3N(CC(=O)N3CC4CCC(CC4)C3)C2=O)c1 (configuration not stated) | 36 | 17 nM | –
8 | Cc1cccc(NC(=O)NC2N=C(c3ccccc3F)c3ccccc3N(CC(=O)N3CC4CCC(CC4)C3)C2=O)c1 (configuration not stated) | 710 | 62 nM | –
9 | CC(=O)c1cccc(NC(=O)NC2N=C(c3ccccc3F)c3cccc(C)c3N(CC(=O)N3CC4CCC(CC4)C3)C2=O)c1 (configuration not stated) | 15 | 13 nM | –
10 | Cc1cccc2c1N(CC(=O)N1CC3CCC(CC3)C1)C(=O)C(NC(=O)Nc1cccc(Cl)c1)N=C2c1ccccc1F (configuration not stated) | 3.7 | 7.4 nM | –
11 | Cc1cccc2c1N(CC(=O)N1CC3CCC(CC3)C1)C(=O)C(NC(=O)Nc1cccc(-c3nn[nH]n3)c1)N=C2c1ccccc1F (stereo in doubt; 11) [listing 1 of 2 here] | 21 | – | –
12 | Cc1cccc2c1N(CC(=O)N1CC3CCC(CC3)C1)C(=O)C(NC(=O)Nc1cccc(-c3nn[nH]n3)c1)N=C2c1ccccc1F (stereo in doubt; (-)-11) [listing 2 of 2 here] | – | – | 670 nM
13 | Cc1cccc2c1N(CC(=O)N1CC3CCC(CC3)C1)C(=O)C(NC(=O)Nc1cccc(-c3nn[nH]n3)c1)N=C2c1ccccc1F (stereo in doubt; 11) [listing 2 of 2 here] | – | 14 nM | –
14 | Cc1cccc2c1N(CC(=O)N1CC3CCC(CC3)C1)C(=O)C(NC(=O)Nc1cccc(-c3nn[nH]n3)c1)N=C2c1ccccc1F (single isomer, unassigned; (+)) [listing 2 of 2 here] | – | – | 9.2 nM
